This assay concerns the target T1, CCXCKR2 receptor (Homo sapiens, UniProt P25106).
T1 construct: expressed in transfected cells; host or cells: MDA-MB-435S transfected with pcDNA3.1(+)-hRDC1 and/or MCF-7 (endogenous receptor)
In words: Displacement of 125I-labeled SDF-1 from the CCXCKR2 receptor on MCF-7 and/or CCXCKR2-transfected MDA-MB-435S cells (radioligand binding, filtration). Particulars: 125I SDF-1, 3 hr at 4° C., MCF-7 and/or MDA-MB-435S cells; read-out: Activity (concentration displacing at least 50% of the SDF-1 from the CCXCKR2 receptor). For orientation: In a radioligand displacement assay an active substance lowers the binding of a labelled ligand.
T1 sequence (P25106 whole entry): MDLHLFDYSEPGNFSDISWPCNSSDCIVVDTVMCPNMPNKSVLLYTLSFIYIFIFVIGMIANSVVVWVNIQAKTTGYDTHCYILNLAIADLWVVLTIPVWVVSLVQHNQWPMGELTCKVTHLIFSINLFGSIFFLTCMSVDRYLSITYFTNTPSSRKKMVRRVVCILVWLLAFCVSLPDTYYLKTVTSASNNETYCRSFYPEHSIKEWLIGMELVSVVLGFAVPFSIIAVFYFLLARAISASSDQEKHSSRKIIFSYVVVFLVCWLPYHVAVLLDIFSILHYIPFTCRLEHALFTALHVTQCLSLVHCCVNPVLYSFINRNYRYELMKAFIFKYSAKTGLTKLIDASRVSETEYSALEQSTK
`Cc1ccc(C(=O)c2cn(Cc3cccnc3)c3cc4c(cc3c2=O)OCO4)cc1C` [Example 2]: the IC50 lay in the range of 500 to 20000 nM.

Turning to `Cc1ccc(C(=O)c2cn(Cc3cccc(O)n3)c3ccccc3c2=O)cc1C` [Example 213], the IC50 was 500 to 20000 nM. For `Cc1cccc(Cn2cc(C(=O)c3ccc(C)c(C)c3)c(=O)c3nc(C)ccc32)n1` [Example 130] the value was less than 100 nM; for `CN(C)c1ccc(C(=O)c2cn(Cc3cccc(Br)n3)c3ccccc3c2=O)cn1` [Example 197], less than 100 nM.

`COc1cc(C(=O)c2cn(Cc3cccc(Br)n3)c3ncccc3c2=O)ccc1Cl` [Example 172]: the IC50 was less than 100 nM. Regarding `CN(C)C(=O)c1ccccc1C(=O)c1cn(Cc2cccc(Br)n2)c2ccccc2c1=O` [Example 168], the IC50 was less than 100 nM. For `Cc1ccc(C(=O)c2cn(Cc3ccccc3F)c3cc4c(cc3c2=O)OCCO4)cc1C` [Example 7] the value was 500 to 20000 nM; for `O=C(c1cccnc1)c1cn(Cc2ccccc2F)c2ccccc2c1=O` [Example 33], 500 to 20000 nM. `Cc1cccc(Cn2cc(C(=O)c3ccccc3)c(=O)c3ccccc32)c1` [Example 18]: the IC50 was in the range of 100 to 500 nM. Take `Cc1cccc(Cn2cc(C(=O)c3ccc(C)c(C)n3)c(=O)c3ccccc32)n1` [Example 96]: the IC50 is less than 100 nM. For `Cc1cc(C(=O)c2cn(Cc3cccc(Br)n3)c3ccc(F)cc3c2=O)cnc1C` [Example 67], the IC50 was less than 100 nM. As for `O=C(c1cnccn1)c1cn(Cc2ccccc2F)c2ccccc2c1=O` [Example 61], the IC50 is 500 to 20000 nM. For `Cc1ccc(C(=O)c2cn(Cc3cccc(Br)n3)c3ccccc3c2=O)nc1` [Example 151] the value was less than 100 nM. Consider `Cc1ccc(C(=O)c2cn(Cc3ncccn3)c3ccccc3c2=O)cc1C` [Example 56], for which the IC50 is less than 100 nM. For `Cc1ccc(C)c(C(=O)c2cn(Cc3cccc(Br)n3)c3ccccc3c2=O)c1` [Example 102] the value was less than 100 nM. Take `COc1ncc(C(=O)c2cn(Cc3cccc(Br)n3)c3ccccc3c2=O)cc1C` [Example 198]: the IC50 was less than 100 nM. The figure for `O=C(c1cccc(C2OCCCO2)c1)c1cn(Cc2cccc(Br)n2)c2ccccc2c1=O` [Example 135] is 500 to 20000 nM; for `Cc1ccc(C(=O)c2cn(Cc3cccc(C(F)(F)F)n3)c3ccccc3c2=O)nc1C` [Example 79] it is less than 100 nM. For `Cc1ccc(C(=O)c2cn(Cc3cccc(Br)n3)c3ccccc3c2=O)c(C)n1` [Example 185] the value was less than 100 nM. For `COc1ccc(C(=O)c2cn(Cc3cccc(Br)n3)c3ncccc3c2=O)cc1OC` [Example 193], the IC50 was less than 100 nM. The figure for `CC(C)c1ccc(C(=O)c2cn(Cc3cccc(Br)n3)c3ccccc3c2=O)cc1` [Example 148] is less than 100 nM; for `Cc1cc(C(=O)c2cn(Cc3cccc(NC4CC4)n3)c3ccccc3c2=O)cnc1C` [Example 110] it is 500 to 20000 nM. With `COc1ncc(C(=O)c2cn(Cc3cccc(Cl)c3)c3ccccc3c2=O)cc1C` [Example 240], the IC50 is less than 100 nM. Consider `Cc1cc(C(=O)c2cn(Cc3cccc(C(F)(F)F)n3)c3ccccc3c2=O)cnc1C` [Example 82], for which the IC50 was less than 100 nM. For `Cc1ccc(C(=O)c2cn(Cc3cccc(N4CCOCC4)n3)c3ccccc3c2=O)cc1C` [Example 71] the value was 100 to 500 nM; for `O=C(c1ccc(Cl)cc1)c1cn(Cc2cccc(Br)n2)c2ccccc2c1=O` [Example 200], less than 100 nM. For `Cc1cc(Cn2cc(C(=O)c3ccc(C)c(C)c3)c(=O)c3ccccc32)no1` [Example 30, 3-(3,4-Dimethyl-benzoyl)-1-(5-methyl-isoxazol-3-ylmethyl)-1H-quinolin-4-one] the value was 100 to 500 nM.

For the compound `Cc1ccc2c(n1)c(=O)c(C(=O)c1ccc(C)c(C)c1)cn2Cc1cccc(Br)n1` [Example 119], the IC50 is less than 100 nM. For `O=C(c1ccccc1C1OCCCO1)c1cn(Cc2cccc(Br)n2)c2ccccc2c1=O` [Example 126], the IC50 was less than 100 nM. Turning to `Cc1ccc(C(=O)c2cn(Cc3cccc(Br)n3)c3cc(F)ccc3c2=O)cc1C` [Example 59], the IC50 is less than 100 nM. For `COc1ccc(C(=O)c2cn(Cc3cccc(C(F)(F)F)c3)c3ncccc3c2=O)cc1C` [Example 196], the IC50 is less than 100 nM. Take `Cc1cc(C(=O)c2cn(Cc3ccccc3F)c3ccccc3c2=O)ccn1` [Example 24]: the IC50 was 500 to 20000 nM.

`O=C(c1ccc(N2CCCC2)nc1)c1cn(Cc2cccc(Br)n2)c2ccccc2c1=O` [Example 241]: the IC50 was in the range of 100 to 500 nM. For `Cc1cccc(C(=O)c2cn(Cc3cccc(Br)n3)c3ccccc3c2=O)n1` [Example 122] the value was 100 to 500 nM; for `Cc1cc(C(=O)c2cn(Cc3cccc(Br)n3)c3ccccc3c2=O)c[n+]([O-])c1C` [Example 112], 100 to 500 nM; for `Cc1ccc(C(=O)c2cn(Cc3cccc(C)n3)c3ccccc3c2=O)nc1` [Example 221], 500 to 20000 nM. For `CCN(CC)c1ccc(C(=O)c2cn(Cc3cccc(Br)c3)c3ccccc3c2=O)cn1` [Example 235] the value was less than 100 nM; for `CSc1cccc(Cn2cc(C(=O)c3ccc(C)c(C)c3)c(=O)c3ccccc32)n1` [Example 77], less than 100 nM.

For the compound `COCc1cccc(Cn2cc(C(=O)c3ccc(C)c(C)c3)c(=O)c3ccccc32)n1` [Example 111], the IC50 lay within 100 to 500 nM. Regarding `Cc1ccc(C(=O)c2cn(Cc3ccccn3)c3cc4c(cc3c2=O)OCCO4)cc1C` [Example 11], the IC50 is 500 to 20000 nM. For `Cc1cccc(Cn2cc(C(=O)c3cnc4c(c3)OCCO4)c(=O)c3cc(C)c(C)nc32)n1` [Example 191] the value was 100 to 500 nM. As for `Cc1ccc(C(=O)c2cn(Cc3cccc(N(C)C)n3)c3ccccc3c2=O)cc1C` [Example 92], the IC50 was in the range of 500 to 20000 nM.

In the case of `Cc1cc(C(=O)c2cn(C(C)c3cccc(Br)n3)c3ccccc3c2=O)cnc1C` (stereo not shown) [Example 84], the IC50 was in the range of 500 to 20000 nM. The figure for `CNCc1cccc(Cn2cc(C(=O)c3ccc(C)c(C)c3)c(=O)c3ccccc32)n1` [Example 117] is 500 to 20000 nM; for `Cc1ccc(C(=O)c2cn(Cc3ccccc3C)c3cc4c(cc3c2=O)OCCO4)cc1C` [Example 6] it is 500 to 20000 nM; for `CNc1cccc(Cn2cc(C(=O)c3cnc(C)c(C)c3)c(=O)c3ccccc32)n1` [Example 99] it is 100 to 500 nM. The figure for `Cc1nc(C(=O)c2cn(Cc3cccc(Br)n3)c3ccccc3c2=O)sc1C` [Example 147] is less than 100 nM; for `Cc1cc(C(=O)c2cn(Cc3cccc(CO)n3)c3ccccc3c2=O)cnc1C` [Example 125] it is 100 to 500 nM. For the compound `Cc1cccc(Cn2cc(C(=O)c3cccnc3)c(=O)c3ccccc32)n1` [Example 35], the IC50 lay within 500 to 20000 nM. `Cc1cccc(Cn2cc(C(=O)c3cnc(C)c(C)c3)c(=O)c3cc(F)ccc32)c1` [Example 55]: the IC50 was less than 100 nM. The figure for `Cc1ccc(C(=O)c2cn(Cc3cccc(N4CCCCC4)n3)c3ccccc3c2=O)cc1C` [Example 68] is less than 100 nM. The figure for `CCc1ccc(C(=O)c2cn(Cc3cccc(Br)n3)c3ccccc3c2=O)cn1` [Example 154] is less than 100 nM; for `Cc1ccc(C(=O)c2cn(Cc3cccc(CCl)n3)c3ccccc3c2=O)cc1C` [Example 108] it is less than 100 nM.

Turning to `COc1ccc(C(=O)c2cn(Cc3cccc(Br)n3)c3nc(C(F)(F)F)ccc3c2=O)cc1F` [Example 226], the IC50 was 500 to 20000 nM. The figure for `CSc1ccc(C(=O)c2cn(Cc3cccc(Br)n3)c3ccccc3c2=O)cc1` [Example 186] is less than 100 nM; for `Cc1cccc(Cn2cc(C(=O)c3ccc(N(C)C)cc3)c(=O)c3ccccc32)n1` [Example 158] it is less than 100 nM; for `Cc1ccc(C(=O)c2cn(-c3ccccc3)c3ccccc3c2=O)cc1C` [Example 38] it is 500 to 20000 nM.

Turning to `CN(C)c1cccc(C(=O)c2cn(Cc3cccc(Br)n3)c3ccccc3c2=O)c1` [Example 97], the IC50 was less than 100 nM.

Regarding `COc1ccc(C(=O)c2cn(Cc3cccc(Br)n3)c3ccccc3c2=O)cc1` [Example 144], the IC50 is less than 100 nM. The figure for `COc1ccc(C(=O)c2cn(Cc3cccc(C)n3)c3ccc(C)nc3c2=O)cc1C` [Example 216] is 500 to 20000 nM; for `Cc1cc(C(=O)c2cn(Cc3cccc(C#N)n3)c3ccccc3c2=O)cnc1C` [Example 85] it is less than 100 nM.

For the compound `COc1ccc(C(=O)c2cn(Cc3cccc(Cl)c3)c3ccc(C)nc3c2=O)cc1C` [Example 234], the IC50 lay in the range of 100 to 500 nM. For `COc1ccc(C(=O)c2cn(Cc3cccc(C)n3)c3cccnc3c2=O)cc1C` [Example 206] the value was 500 to 20000 nM. For `Cc1ccc(C(=O)c2cn(Cc3cccc(Br)n3)c3ccccc3c2=O)cc1C` [Example 51], the IC50 was less than 100 nM. For `Cc1ccc(C(=O)c2cn(Cc3cccc(C(=O)O)n3)c3ccccc3c2=O)cc1C` [Example 83] the value was 500 to 20000 nM; for `COc1cc(C(=O)c2cn(Cc3cccc(Br)n3)c3ccccc3c2=O)ccc1Cl` [Example 204], less than 100 nM; for `O=C(c1ccc(Cl)c(F)c1)c1cn(Cc2cccc(Br)n2)c2ccccc2c1=O` [Example 179], less than 100 nM.

Turning to `Cc1ccc(C(=O)c2cn(C(C)c3cccc(Br)n3)c3ccccc3c2=O)nc1C` (stereo not shown) [Example 76], the IC50 was less than 100 nM. Turning to `Cc1ccc(C(=O)c2cn(Cc3nnsc3Cl)c3ccccc3c2=O)cc1C` [Example 28, 1-(5-Chloro-[1,2,3]thiadiazol-4-ylmethyl)-3-(3,4-dimethyl-benzoyl)-1H-quinolin-4-one], the IC50 is less than 100 nM. The figure for `Cc1cccc(Cn2cc(C(=O)c3ccc(C)c(C)c3)c(=O)c3cnccc32)c1` [Example 47] is 100 to 500 nM; for `O=C(c1ccc(Cl)nc1)c1cn(Cc2cccc(Br)n2)c2ccccc2c1=O` [Example 188] it is less than 100 nM.

For the compound `Cc1ccc(C(=O)c2cn(Cc3cccc(C(F)(F)F)n3)c3ccccc3c2=O)cc1C` [Example 66], the IC50 is less than 100 nM.

Turning to `COc1ccc(C(=O)c2cn(Cc3cccc(C#N)n3)c3ncccc3c2=O)cc1C` [Example 194], the IC50 is less than 100 nM.

Values taken from patent US7557213B2, “Substituted quinolones and methods of use” (ChemoCentryx, Inc., priority 2005, dated 2009).
